Reference: BindingDB's records for doi:10.1021/jm990343b (Purdue University, 1999)
Where “and” joins values, the source holds several entries; their conditions need not be identical. Equal values may be shown once.

Molecular target: T1, Gag-Pol polyprotein [588-1027]/[588-1147] (Human immunodeficiency virus 1, UniProt P04585)
T1 construct: 588-1027; 588-1147
Assay: HIV-1 RT Assay
Conditions: pH 7.9

SMILES	IC50
CCC(CCCC=C(c1cc(Cl)c(OC)c(CO)c1)c1cc(Cl)c(OC)c(CO)c1)C1OCCO1 (stereo not drawn) [(3-chloro-5-{1-[3-chloro-5-(hydroxymethyl)-4-methoxyphenyl]-6-(1,3-dioxolan-2-yl)oct-1-en-1-yl}-2-methoxyphenyl)methanol]	3.2 µM and 31.6 µM
COC(=O)CC=C(c1cc(Cl)c(OC)c(C(=O)OC)c1)c1cc(Cl)c(OC)c(C(=O)OC)c1 [methyl 3-chloro-5-{1-[3-chloro-4-methoxy-5-(methoxycarbonyl)phenyl]-4-methoxy-4-oxobut-1-en-1-yl}-2-methoxybenzoate]	> 100 µM
COC(=O)CCC=C(c1cc(Cl)c(OC)c(C(=O)OC)c1)c1cc(Cl)c(OC)c(C(=O)OC)c1 [methyl 3-chloro-5-{1-[3-chloro-4-methoxy-5-(methoxycarbonyl)phenyl]-5-methoxy-5-oxopent-1-en-1-yl}-2-methoxybenzoate]	> 100 µM
